Experimental data reported in patent US8569336B2, “Compounds for the treatment of inflammatory disorders” (priority 2008, dated 2013).
Like-named read-outs stand apart in the source and are kept apart here.

How the values were obtained:
[1] = target: T1, purified catalytic domain of recombinant human TACE (rhTACEc) (Homo sapiens, UniProt P78536, N452Q/S266A); experiment: TACE kinetic assay: cleavage of internally quenched peptide substrate TNF-FRET 2 (Ki); format: biochemical; conditions: TNF-FRET 2 substrate
T1 construct: 6xHis (C); made in house; host or cells: baculovirus/Hi5 insect cells

[2] = tested on: TNF-α production from human whole blood; experiment: Inhibition of TNF-α production from human whole blood (hWBA), LPS stimulated, ELISA; format: cell-based; conditions: Homo sapiens, TNF-α by ELISA, read-out: hWBA (IC50)
[3] = Area under the curve determinations of plasma levels in rats (rrAUC), oral 10 mg/kg; format: in vivo; conditions: for AUC: rat, read-out: RR AUC (rapid rat AUC, rrAUC)
[4] = LPS-stimulated human whole blood
[5] = 3.5 h, human whole blood diluted 1:1, LPS stimulated, 3.5 h

T1 sequence (P78536 215-477 S266A/N452Q): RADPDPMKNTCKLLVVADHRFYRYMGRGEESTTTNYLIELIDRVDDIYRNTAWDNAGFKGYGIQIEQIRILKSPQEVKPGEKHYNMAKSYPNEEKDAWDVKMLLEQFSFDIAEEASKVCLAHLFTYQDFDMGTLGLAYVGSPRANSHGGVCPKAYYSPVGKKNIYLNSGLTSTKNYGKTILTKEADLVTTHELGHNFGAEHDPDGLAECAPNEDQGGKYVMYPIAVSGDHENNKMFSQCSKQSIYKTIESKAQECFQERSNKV

Ki ([1]; read-out: Ki) [µM] | IC50 [2, 4] [µM] | AUC ([3]; plasma 0.5-6 h) [µM·h] | RR AUC (rapid rat AUC, rrAUC) ([3]; plasma 0.5-6 h) [µM·h] | IC50 [2, 5] [µM] | AUC ([3]; plasma 0.5-6 h post-dosing) [µM·h] | SMILES | Ki ([1]; Ki) [µM]
0.00036 | 0.087 | 0.863 | – | – | – | COc1ccc2c(c1F)C(=O)N(C[C@@]1(c3cc4nc(-c5ccc(N)nc5)c(F)cc4o3)NC(=O)NC1=O)C2 [Compound 1318] | –
0.00059 | 0.234 | 0.226 | – | – | – | COc1ccc2c(c1F)C(=O)N(C[C@@]1(c3cc4nc(N5CCN(C)C5=O)c(F)cc4o3)NC(=O)NC1=O)C2 [Compound 1329] | –
0.00066 | 0.31 | 0.67 | – | – | – | COc1ccc2c(c1F)C(=O)N(C[C@@]1(c3cc4nc(N5CCNC5=O)c(F)cc4o3)NC(=O)NC1=O)C2 [Compound 1331] | –
0.0005 | 0.131 | 0.667 | – | – | – | COc1ccc2c(c1F)C(=O)N(C[C@@]1(c3cc4nc(N5C[C@@H](O)CC5=O)ccc4o3)NC(=O)NC1=O)C2 [Compound 1501] | –
0.0004 | 0.263 | 5.19 | – | – | – | COc1ccc2c(c1F)C(=O)N(C[C@@]1(c3cc4nc(N5C(=O)CCC5C)ccc4o3)NC(=O)NC1=O)C2 (stereo partly drawn) [Compound 1510] | –
0.0004 | 0.0934 | 4.01 | – | – | – | COc1ccc2c(c1F)C(=O)N(C[C@@]1(c3cc4nc(N5C[C@H](O)CC5=O)ccc4o3)NC(=O)NC1=O)C2 [Compound 1511] | –
0.0013 | 1.55 | 0.303 | – | – | – | COc1ccc2c(c1)C(=O)N(C[C@@]1(c3cc4nc(N5CCCCC5=O)ccc4o3)NC(=O)NC1=O)C2 [Compound 1512] | –
0.0003 | 0.211 | 4.63 | – | – | – | COc1ccc2c(c1F)C(=O)N(C[C@@]1(c3cc4nc(N5CCC5=O)ccc4o3)NC(=O)NC1=O)C2 [Compound 1522] | –
0.0006 | 0.289 | 4.29 | – | – | – | COc1ccc2c(c1F)C(=O)N(C[C@@]1(c3cc4nc(-n5ccnc5)ccc4o3)NC(=O)NC1=O)C2 [Compound 1523] | –
0.0003 | 0.557 | 8 | – | – | – | COc1ccc2c(c1F)C(=O)N(C[C@@]1(c3cc4nc(-n5cccn5)ccc4o3)NC(=O)NC1=O)C2 [Compound 1524] | –
0.00082 | 0.137 | 1.2 | – | – | – | CCN1CCN(c2ccc3oc([C@]4(CN5Cc6ccc(OC)c(F)c6C5=O)NC(=O)NC4=O)cc3n2)CC1 [Compound 1705] | –
0.0005 | 0.224 | 0.273 | – | – | – | COc1ccc2c(c1F)C(=O)N(C[C@@]1(c3cc4nc(N5CCN(C(C)C)CC5)ccc4o3)NC(=O)NC1=O)C2 [Compound 1706] | –
0.0005 | 0.235 | 0.65 | – | – | – | CCN1CCN(c2ccc3oc([C@]4(CN5Cc6ccc(OC)c(F)c6C5=O)NC(=O)NC4=O)cc3n2)CC1=O [Compound 1707] | –
0.0005 | 0.113 | 5.09 | – | – | – | COc1ccc2c(c1F)C(=O)N(C[C@@]1(c3cc4nc(N5CCN(C6CC6)CC5)ccc4o3)NC(=O)NC1=O)C2 [Compound 1711] | –
0.00279 | 0.48 | 0.199 | – | – | – | COc1ccc2c(c1F)C(=O)N(C[C@@]1(c3cc4nc(N5CCC(OC)(OC)CC5)ccc4o3)NC(=O)NC1=O)C2 [Compound 1715] | –
0.00048 | 0.132 | 0.393 | – | – | – | COc1ccc2c(c1F)C(=O)N(C[C@@]1(c3cc4nc(-c5ccc(N)nc5)ccc4o3)NC(=O)NC1=O)C2 [Compound 1716] | –
0.00071 | 0.454 | 0.904 | – | – | – | COc1ccc2c(c1F)C(=O)N(C[C@@]1(c3cc4nc(Nc5cncc(F)c5)ccc4o3)NC(=O)NC1=O)C2 [Compound 1733] | –
0.00042 | 0.136 | 0.094 | – | – | – | COc1ccc2c(c1F)C(=O)N(C[C@@]1(c3cc4ncc(C(N)=O)cc4o3)NC(=O)NC1=O)C2 [Compound 1908] | –
0.00115 | 0.585 | 0.066 | – | – | – | COc1ccc2c(c1F)C(=O)N(C[C@@]1(c3cc4ncc(C(=O)NC5CC5)cc4o3)NC(=O)NC1=O)C2 [Compound 1909] | –
0.00034 | 0.153 | 0.351 | – | – | – | COc1ccc2c(c1F)C(=O)N(C[C@@]1(c3cc4nc(N)ccc4o3)NC(=O)NC1=O)C2 [Compound 1910] | –
0.00125 | 0.281 | 0.088 | – | – | – | COc1ccc2c(c1F)C(=O)N(C[C@@]1(c3cc4nc(C)c(N5CCC5=O)cc4o3)NC(=O)NC1=O)C2 [Compound 1922] | –
0.00039 | – | – | – | 0.243 | 7 | COc1ccc2c(c1F)C(=O)N(C[C@@]1(c3cc4nc(-c5c(C)nn(C)c5C)ccc4o3)NC(=O)NC1=O)C2 [Compound 2119] | –

More lines, now with the values behind:

SMILES | Ki ([1]; read-out: Ki) [µM] | IC50 [2, 4] [µM] | AUC ([3]; plasma 0.5-6 h) [µM·h] | RR AUC (rapid rat AUC, rrAUC) ([3]; plasma 0.5-6 h) [µM·h] | IC50 [2, 5] [µM] | AUC ([3]; plasma 0.5-6 h post-dosing) [µM·h] | Ki ([1]; Ki) [µM]
COc1ccc2c(c1F)C(=O)N(C[C@@]1(c3cc4nc(C5=CCNCC5)c(F)cc4o3)NC(=O)NC1=O)C2 [Compound 1320] | – | 0.055 | 0.101 | – | – | – | 0.00037
CCN1CCC(c2nc3cc([C@]4(CN5Cc6ccc(OC)c(F)c6C5=O)NC(=O)NC4=O)oc3cc2F)CC1 [Compound 1325] | 0.001 | 0.175 | 0.009 | – | – | – | –
COc1ccc2c(c1F)C(=O)N(C[C@@]1(c3cc4nc(Cl)c(F)cc4o3)NC(=O)NC1=O)C2 [Compound 1328] | – | 2.68 | 5.61 | – | – | – | 0.00049
COc1ccc2c(c1)C(=O)N(C[C@@]1(c3cc4nc(N5CCC[C@H]5CO)ccc4o3)NC(=O)NC1=O)C2 [Compound 1513] | 0.0007 | 0.526 | 0.524 | – | – | – | –
COc1ccc2c(c1)C(=O)N(C[C@@]1(c3cc4nc(N5CCCC(C(N)=O)C5)ccc4o3)NC(=O)NC1=O)C2 (stereo partly drawn) [Compound 1515] | 0.0007 | 0.245 | 0.145 | – | – | – | –
CCOC(=O)C1CCCN(c2ccc3oc([C@]4(CN5Cc6ccc(OC)cc6C5=O)NC(=O)NC4=O)cc3n2)C1 (stereo partly drawn) [Compound 1516] | 0.0005 | 1.74 | 0.041 | – | – | – | –
COc1ccc2c(c1)C(=O)N(C[C@@]1(c3cc4nc(-c5ccc(C#N)nc5)ccc4o3)NC(=O)NC1=O)C2 [Compound 1530] | 0.0007 | 1.61 | – | 0.536 | – | – | –
CCN1CCN(c2nc3cc([C@]4(CN5Cc6ccc(OC)c(F)c6C5=O)NC(=O)NC4=O)oc3cc2F)CC1 [Compound 1709] | 0.0007 | 0.131 | 0.623 | – | – | – | –
COc1ccc2c(c1F)C(=O)N(C[C@@]1(c3cc4nc(Nc5ccc(-c6cn[nH]c6)cn5)ccc4o3)NC(=O)NC1=O)C2 [Compound 1734] | 0.00192 | 0.289 | 0.068 | – | – | – | –
COc1ccc2c(c1)C(=O)N(C[C@@]1(c3cc4nc(C(N)=O)ccc4o3)NC(=O)NC1=O)C2 [Compound 1924] | 0.00055 | 0.2 | 0.113 | – | – | – | –
CNC(=O)c1ccc2oc([C@]3(CN4Cc5ccc(OC)cc5C4=O)NC(=O)NC3=O)cc2n1 [Compound 1925] | 0.00086 | 0.28 | – | 1.07 | – | – | –
COc1ccc2c(c1)C(=O)N(C[C@@]1(c3cc4nc(N)ccc4o3)NC(=O)NC1=O)C2 [Compound 1936] | – | 0.187 | 0.424 | – | – | – | 0.00051
COc1ccc2c(c1)C(=O)N(C[C@@]1(c3cc4nc(NS(=O)(=O)C5CC5)ccc4o3)NC(=O)NC1=O)C2 [Compound 1938] | 0.00058 | 0.518 | 0.015 | – | – | – | –
COc1ccc2c(c1)C(=O)N(C[C@@]1(c3cc4nc(-c5cn[nH]c5)ccc4o3)NC(=O)NC1=O)C2 [Compound 2100] | 0.000197 | – | – | – | 0.0994 | 0.104 | –
COc1ccc2c(c1)C(=O)N(C[C@@]1(c3cc4nc(-c5ccc(N)nc5)ccc4o3)NC(=O)NC1=O)C2 [Compound 2102] | – | – | – | – | 0.164 | 0.092 | 0.000328
COc1ccc2c(c1)C(=O)N(C[C@@]1(c3cc4nc(-c5cnn(C)c5)ccc4o3)NC(=O)NC1=O)C2 [Compound 2104] | – | – | – | – | 0.285 | 0.369 | 0.000191
COc1ccc2c(c1)C(=O)N(C[C@@]1(c3cc4nc(-c5c(C)nn(C)c5C)ccc4o3)NC(=O)NC1=O)C2 [Compound 2105] | 0.000155 | – | – | – | 0.216 | 7.54 | –
COc1ccc2c(c1)C(=O)N(C[C@@]1(c3cc4nc(-c5cccnc5)ccc4o3)NC(=O)NC1=O)C2 [Compound 2107] | 0.000902 | – | – | – | 0.171 | 3.08 | –
COc1ccc2c(c1)C(=O)N(C[C@@]1(c3cc4nc(N5CCN(C)CC5)ccc4o3)NC(=O)NC1=O)C2 [Compound 2108] | – | – | – | – | 0.15 | 0.43 | 0.000613
COc1ccc2c(c1)C(=O)N(C[C@@]1(c3cc4nc(-c5ccncc5)ccc4o3)NC(=O)NC1=O)C2 [Compound 2110] | 0.00062 | – | – | – | 0.351 | 10.5 | –
COc1ccc2c(c1)C(=O)N(C[C@@]1(c3cc4nc(Nc5c(C)nn(C)c5C)ccc4o3)NC(=O)NC1=O)C2 [Compound 2112] | 0.000385 | – | – | – | 0.533 | 0.019 | –
COc1ccc2c(c1)C(=O)N(C[C@@]1(c3cc4nc(-c5cnn(CC(C)C)c5)ccc4o3)NC(=O)NC1=O)C2 [Compound 2115] | 0.000193 | – | – | – | 0.968 | 0.349 | –
CCCn1cc(-c2ccc3oc([C@]4(CN5Cc6ccc(OC)cc6C5=O)NC(=O)NC4=O)cc3n2)cn1 [Compound 2117] | 0.000408 | – | – | – | 1.01 | 0.32 | –
COc1ccc2c(c1)C(=O)N(C[C@@]1(c3cc4nc(-n5nc(N)cc5C)ccc4o3)NC(=O)NC1=O)C2 [Compound 2118] | – | – | – | – | 3.79 | 0.527 | 0.0006
COc1ccc2c(c1F)C(=O)N(C[C@@]1(c3cc4nc(-c5ccncc5)ccc4o3)NC(=O)NC1=O)C2 [Compound 2122] | – | – | – | – | 0.426 | 8.18 | 0.00058
